Assay results: the supplement of paper PMC10307832

Key:
Test in all cases: relative viability (nuclei count vs DMSO), 5 days (fraction); higher = more cells survive
Etoposide + Olaparib = compound: COc1cc([C@@H]2c3cc4c(cc3[C@@H](O[C@@H]3O[C@@H]5CO[C@@H](C)O[C@H]5[C@H](O)[C@H]3O)[C@H]3COC(=O)[C@H]23)OCO4)cc(OC)c1O [Etoposide] + O=C(c1cc(Cc2n[nH]c(=O)c3ccccc23)ccc1F)N1CCN(C(=O)C2CC2)CC1 [Olaparib] (partner 8 µM)
Method in brief: (§1)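 Cells from lung cancer lines were seeded into 1536-well plates and, one day later, dosed by pin tool. Treatments were either a single drug or a fixed dose of an anchor drug with five library-drug doses (not always all listed) in √10 steps. After 5 days, nuclei were stained in a one-step fixation (final 0.05% Triton X-100, 1% formaldehyde, 1 ug/ml Hoechst) and counted on 4× images, and relative viability is the treated-to-vehicle nuclei ratio, as the median of duplicate plates.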

Etoposide + Tozasertib = compound: COc1cc([C@@H]2c3cc4c(cc3[C@@H](O[C@@H]3O[C@@H]5CO[C@@H](C)O[C@H]5[C@H](O)[C@H]3O)[C@H]3COC(=O)[C@H]23)OCO4)cc(OC)c1O [Etoposide] + Cc1cc(Nc2cc(N3CCN(C)CC3)nc(Sc3ccc(NC(=O)C4CC4)cc3)n2)n[nH]1 [Tozasertib] (partner 0.1 µM)
Method in brief: as §1

Etoposide + Alpelisib = compound: COc1cc([C@@H]2c3cc4c(cc3[C@@H](O[C@@H]3O[C@@H]5CO[C@@H](C)O[C@H]5[C@H](O)[C@H]3O)[C@H]3COC(=O)[C@H]23)OCO4)cc(OC)c1O [Etoposide] + Cc1nc(NC(=O)N2CCC[C@H]2C(N)=O)sc1-c1ccnc(C(C)(C)C(F)(F)F)c1 [Alpelisib] (partner 2 µM)
Method in brief: as §1

Bleomycin + Lapatinib = compound: CC1=C(N=C(N=C1N)[C@H](CC(=O)N)NC[C@@H](C(=O)N)N)C(=O)N[C@@H]([C@H](C2=CN=CN2)OC3C(C(C(C(O3)CO)O)O)OC4C(C(C(C(O4)CO)O)OC(=O)N)O)C(=O)N[C@H](C)[C@H]([C@H](C)C(=O)N[C@@H]([C@@H](C)O)C(=O)NCCC5=NC(=CS5)C6=NC(=CS6)C(=O)NCCC[S+](C)C)O [Bleomycin] + CS(=O)(=O)CCNCc1ccc(-c2ccc3ncnc(Nc4ccc(OCc5cccc(F)c5)c(Cl)c4)c3c2)o1 [Lapatinib] (partner 2 µM); settings: main component drawn
Method in brief: as §1

Cell Line	relative viability (Etoposide + Olaparib; first compound 0.01 µM)	relative viability (Etoposide + Olaparib; first compound 0.03162 µM)	relative viability (Etoposide + Olaparib; first compound 0.1 µM)	relative viability (Etoposide + Olaparib; first compound 0.3162 µM)	relative viability (Etoposide + Olaparib; first compound 1 µM)	relative viability (Etoposide + Tozasertib; first compound 0.01 µM)	relative viability (Etoposide + Tozasertib; first compound 0.03162 µM)	relative viability (Etoposide + Tozasertib; first compound 0.1 µM)	relative viability (Etoposide + Tozasertib; first compound 0.3162 µM)	relative viability (Etoposide + Tozasertib; first compound 1 µM)	relative viability (Etoposide + Alpelisib; first compound 0.01 µM)	relative viability (Etoposide + Alpelisib; first compound 0.03162 µM)	relative viability (Etoposide + Alpelisib; first compound 0.1 µM)	relative viability (Etoposide + Alpelisib; first compound 0.3162 µM)	relative viability (Etoposide + Alpelisib; first compound 1 µM)	relative viability (Bleomycin + Lapatinib; first compound 0.01 µM)	relative viability (Bleomycin + Lapatinib; first compound 0.03162 µM)	relative viability (Bleomycin + Lapatinib; first compound 0.1 µM)	relative viability (Bleomycin + Lapatinib; first compound 0.3162 µM)	relative viability (Bleomycin + Lapatinib; first compound 1 µM)
201T	0.818	0.804	0.771	0.633	0.384	0.824	0.995	0.886	0.709	0.465	1.02	1.06	0.921	0.94	0.691	1	0.958	0.961	0.916	0.78
A549	0.32	0.209	0.103	0.0476	0.037						0.737	0.793	0.375	0.224	0.0497	0.695	0.634	0.38	0.0818	0.0645
A-427	0.715	0.83	0.588	0.298	0.221	0.213	0.224	0.219	0.165	0.147	1.07	1.14	0.713	0.755	0.229	0.797	0.874	0.776	0.369	0.169
ABC-1	0.79	0.873	0.663	0.607	0.443	0.176	0.202	0.186	0.199	0.195	1.03	1.1	1.02	0.577	0.243	1.01	1.03	1.23	1.01	0.961
